Assay results as given in paper PMC12316308, “Interactions of substrates and phosphinyl containing inhibitors with bacterial and human zinc proteases” (PLOS One, 2025).
“And” between values parts separate entries of the source, which are not always exact repeats. Equal entries are not always repeated. Where two headings read alike, the source gives them in different places.

Key:
Assay type in all cases: biochemical
[1] = target: T1, Mag-Trypsin activated MMP-9 (MMP-9(MT)) (Homo sapiens, UniProt P14780); experiment: Enzyme inhibition kinetics, fluorogenic substrate ES001; conditions: rMMP-9 (Mag-trypsin activated); for remaining activity at 100 µM: 100 µM inhibitor
T1 construct: made in house; host or cells: Sf9 and High Five insect cells
T1 sequence (P14780 107-707 limits assumed): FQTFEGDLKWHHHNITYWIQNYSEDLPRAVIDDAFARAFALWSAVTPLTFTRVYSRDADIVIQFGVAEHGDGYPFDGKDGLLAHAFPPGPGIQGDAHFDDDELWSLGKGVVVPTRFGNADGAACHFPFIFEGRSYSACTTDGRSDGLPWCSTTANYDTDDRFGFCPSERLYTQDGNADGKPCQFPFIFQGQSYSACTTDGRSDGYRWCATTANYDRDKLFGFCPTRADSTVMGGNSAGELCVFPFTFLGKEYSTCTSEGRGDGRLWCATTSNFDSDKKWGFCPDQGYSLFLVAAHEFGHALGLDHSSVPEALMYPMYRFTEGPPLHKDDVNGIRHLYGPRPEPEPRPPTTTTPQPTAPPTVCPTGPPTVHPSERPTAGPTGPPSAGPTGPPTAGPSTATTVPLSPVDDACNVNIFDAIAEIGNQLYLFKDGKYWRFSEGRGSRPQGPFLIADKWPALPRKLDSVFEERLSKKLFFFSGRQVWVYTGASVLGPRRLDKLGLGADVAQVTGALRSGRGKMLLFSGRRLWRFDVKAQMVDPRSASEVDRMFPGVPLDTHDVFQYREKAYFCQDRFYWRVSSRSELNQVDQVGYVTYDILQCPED
Protocol: (§1) The expression of recombinant full length proMMP-9 (rpMMP-9) in Sf9 and High Five insect cells and the purification were performed as previously described. The amount of proMMP-9 was estimated spectrophotometrically at 280 nm using ε280nm = […] [46] for the full length enzyme. Activation of the recombinant proMMP-9 was performed with APMA (auto-activation) and Mag-Trypsin as previously described, while the amount of active MMP-9 was determined by active site titration using galardin, also described previously.
(§2) Determination of reaction velocities. The substrate ES001 was used for APMA activated MMP-9 (MMP-9(A)), Mag-Trypsin activated MMP-9 (MMP-9(MT)) and MMP-14, while the substrate ES005 was used for ALN, PLN and TLN. The reaction velocities/initial rates (v) were determined at 37°C, at an excitation wavelength of 320 nm and an emission wavelength of 405 nm with a slit width of 10 nm using either a Perkin Elmer LS 50 Luminescence spectrometer and the FL WinLab Software Package (Perkin Elmer) or a Clario Star micro plate reader (CLARIOstar® BMG LABTECH).
(§3) The phosphinic compounds were dissolved in 100% DMSO to a final concentration of 10 mM. In all assays, a fixed substrate concentration of 4.0 µM was used in a total volume of 100 µL 0.1 M Hepes pH 7.5, 10 mM CaCl2, 0.005% Brij-35 and 1.0% DMSO. Fixed enzyme concentrations were as follows; 0.05 nM MMP-9(A), 0.05 nM MMP-9(MT), 1.0 nM MMP-14, 1.4 nM ALN, 0.5 nM PLN and 0.21 nM TLN. Time dependent inhibitory experiments, with and without 100 μM of phosphinic compounds, were performed as follows: Compounds were either pre-incubated with proteases for 15 and 30 minutes at room temperature before initiating the enzymatic reaction by adding the substrate, or not pre-incubated, meaning the reaction was initiated by adding the protease to the mixture of substrate and compound. Control tests without the compound present were performed under the same conditions. Reactions were monitored for 30 minutes at 37°C.
(§4) Determination of IC50 and Ki values. […] A fixed substrate concentration and the same enzyme and buffer conditions as described above were used. Enzymes, with or without inhibitors, were either pre-incubated for 30 minutes at room temperature or not pre-incubated, and initial rate assays were performed as described above. Assays were performed using a Clario Star microplate reader. The IC50 values with corresponding s.d. were calculated with GraphPad Prism 5 using equation 1 or 2, depending on the concentration range of the phosphinic compounds.
(§5) Equation 3 describe the relationship between IC50 and Ki values for substrate competitive inhibitors, considering the fixed substrate concentration and the enzyme’s Km value for the substrate: […]

[2] = target: T2, APMA activated MMP-9 (MMP-9(A)) (Homo sapiens, UniProt P14780); experiment: as above; conditions: rMMP-9 (APMA activated); for remaining activity at 100 µM: 100 µM inhibitor
T2 construct: made in house; host or cells: Sf9 and High Five insect cells
T2 sequence (P14780 107-707 limits assumed): as above
Protocol: as §1, §2, §3, §4, §5

[3] = target: T3, human MT1-MMP/MMP-14 (catalytic domain) (Homo sapiens, UniProt P50281); experiment: as above; conditions: MMP-14; for remaining activity at 100 µM: 100 µM inhibitor
T3 construct: human MT1-MMP/MMP-14 (catalytic domain); purchased Calbiochem (San Diego, CA, USA)
Protocol: as §2, §3, §4, §5

thermolysin (TLN) = target: T4, thermolysin (TLN) (Bacillus thermoproteolyticus, UniProt P00800); experiment: Enzyme inhibition kinetics, fluorogenic substrate ES005; conditions: for vi/v0 avg (time dependent inhibition, Supplementary Figure S8): Thermolysin, inhibitor 100 µM
T4 construct: purchased Calbiochem (San Diego, CA, USA)
T4 sequence (P00800 233-548): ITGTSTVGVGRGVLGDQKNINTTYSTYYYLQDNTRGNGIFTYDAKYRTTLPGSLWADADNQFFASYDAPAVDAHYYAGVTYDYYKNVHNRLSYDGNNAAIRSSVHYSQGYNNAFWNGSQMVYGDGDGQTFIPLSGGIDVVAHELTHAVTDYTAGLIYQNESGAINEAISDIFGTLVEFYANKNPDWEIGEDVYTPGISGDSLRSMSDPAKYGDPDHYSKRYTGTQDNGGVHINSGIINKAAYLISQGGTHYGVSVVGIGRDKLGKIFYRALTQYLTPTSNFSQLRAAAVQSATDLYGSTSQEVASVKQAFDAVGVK
Protocol: as §2, §3, §4, §5

aureolysin (ALN) = target: T5, aureolysin (ALN) (Staphylococcus aureus, UniProt P81177); experiment: as above; conditions: for remaining activity at 100 µM: 100 µM inhibitor
T5 construct: purchased BioCentrum Ltd (Kraków, Poland)
T5 sequence (P81177 209-509): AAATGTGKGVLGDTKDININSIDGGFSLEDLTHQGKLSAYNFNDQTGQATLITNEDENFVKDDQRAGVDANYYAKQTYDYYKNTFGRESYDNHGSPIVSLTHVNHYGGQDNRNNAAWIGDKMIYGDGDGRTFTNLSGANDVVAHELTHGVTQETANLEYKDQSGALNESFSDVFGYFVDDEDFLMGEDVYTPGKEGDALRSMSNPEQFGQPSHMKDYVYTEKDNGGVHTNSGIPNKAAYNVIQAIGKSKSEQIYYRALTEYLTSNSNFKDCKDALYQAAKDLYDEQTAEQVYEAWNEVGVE
Protocol: as §2, §3, §4, §5

pseudolysin (PLN, LasB) = target: T6, pseudolysin (PLN, LasB) (Pseudomonas aeruginosa, UniProt P14756); experiment: as above; conditions: for remaining activity at 100 µM: 100 µM inhibitor
T6 construct: purchased Calbiochem (San Diego, CA, USA)
T6 sequence (P14756 198-498): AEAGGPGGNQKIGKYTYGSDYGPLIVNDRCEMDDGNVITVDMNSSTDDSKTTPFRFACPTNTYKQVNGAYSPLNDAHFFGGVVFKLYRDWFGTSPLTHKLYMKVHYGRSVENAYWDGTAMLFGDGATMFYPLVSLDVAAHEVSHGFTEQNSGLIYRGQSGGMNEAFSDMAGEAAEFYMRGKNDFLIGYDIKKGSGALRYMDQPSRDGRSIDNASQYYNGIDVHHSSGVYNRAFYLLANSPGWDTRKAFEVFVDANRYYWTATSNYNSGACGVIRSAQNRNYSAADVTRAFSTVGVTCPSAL
Protocol: as §2, §3, §4, §5

[4] = 0.25 h, 15 min pre incubation, read-out: vi/v0 (single replicate)
[5] = 0.25 h, 15 min pre incubation, read-out: vi/v0 avg
[6] = 0.5 h, 30 min pre incubation, read-out: vi/v0 (single replicate)
[7] = 0.5 h, 30 min pre incubation, read-out: vi/v0 avg
[8] = no preincubation, read-out: vi/v0 (single replicate)
[9] = no preincubation, read-out: vi/v0 avg
[10] = inhibitor 100 μM, average over 0, 15, 30 min preincubation
[11] = inhibitor 100 μM, preincubation 0 min
[12] = inhibitor 100 μM, preincubation 15 min
[13] = inhibitor 100 μM, preincubation 30 min

CC(NC(=O)OCc1ccccc1)P(=O)(O)CC(Cc1ccccc1)C(=O)O (centres unmarked) [H4]
remaining activity at 100 µM [1, 4]: 93.4% | remaining activity at 100 µM [1, 5]: 93.8% | remaining activity at 100 µM [1, 6]: 97.8% | remaining activity at 100 µM [1, 7]: 96.3% | remaining activity at 100 µM [1, 8]: 84.9% | remaining activity at 100 µM [1, 9]: 88.4% | vi/v0 Av (bar diagram figure 7) [1, 10]: 0.9238 | vi/v0 (relative enzyme activity with inhibitor), single determinations [1, 11]: 0.8486 and 0.9422 and 0.8609 | vi/v0 (relative enzyme activity with inhibitor), single determinations [1, 12]: 0.9336 and 1.006 and 0.8738 | vi/v0 (relative enzyme activity with inhibitor), single determinations [1, 13]: 0.9779 and 0.9473 | remaining activity at 100 µM [2, 4]: 99.2% | remaining activity at 100 µM [2, 5]: 95% | remaining activity at 100 µM [2, 7]: 100% | remaining activity at 100 µM [2, 8]: 94.1% | remaining activity at 100 µM [2, 9]: 99.6% | vi/v0 Av (bar diagram figure 7) [2, 10]: 0.9837 | vi/v0 (relative enzyme activity with inhibitor), single determinations [2, 11]: 0.9415 and 1.015 and 1.031 | vi/v0 (relative enzyme activity with inhibitor), single determinations [2, 12]: 0.9922 and 0.9231 and 0.9335 | vi/v0 (relative enzyme activity with inhibitor), single determinations [2, 13]: 1.197 and 1.012 and 1.109 and 0.6833 | remaining activity at 100 µM [3, 5]: 101% | remaining activity at 100 µM [3, 6]: 101% | remaining activity at 100 µM [3, 7]: 102% | remaining activity at 100 µM [3, 9]: 106% | vi/v0 Av (bar diagram figure 7) ([3]; inhibitor 100 μM, average over preincubation times): 1.032 | vi/v0 (relative enzyme activity with inhibitor), single determinations [3, 11]: 1.105 and 1.3078 and 1.015 and 0.8074 | vi/v0 (relative enzyme activity with inhibitor), single determinations [3, 12]: 0.8428 and 1.155 and 1.039 | vi/v0 (relative enzyme activity with inhibitor), single determinations [3, 13]: 1.0115 and 1.061 and 0.9741 | vi/v0 Av (bar diagram figure 7) (thermolysin (TLN); Thermolysin (TLN), inhibitor 100 μM, average over 0, 15, 30 min preincubation): 0.9988 | vi/v0 (relative enzyme activity with inhibitor), single determinations (thermolysin (TLN); Thermolysin (TLN), inhibitor 100 μM, preincubation 0 min): 1.0006 and 1.038 and 0.8834 and 0.9657 | vi/v0 (relative enzyme activity with inhibitor), single determinations (thermolysin (TLN); Thermolysin (TLN), inhibitor 100 μM, preincubation 15 min): 1.066 and 0.8371 and 1.067 and 1.122 | vi/v0 (relative enzyme activity with inhibitor), single determinations (thermolysin (TLN); Thermolysin (TLN), inhibitor 100 μM, preincubation 30 min): 1.04 and 0.9732 and 1.001 and 0.9929 | vi/v0 avg (time dependent inhibition, Supplementary Figure S8) (thermolysin (TLN); 15 min pre incubation): 1.023 | vi/v0 avg (time dependent inhibition, Supplementary Figure S8) (thermolysin (TLN); 30 min pre incubation): 1.002 | vi/v0 avg (time dependent inhibition, Supplementary Figure S8) (thermolysin (TLN); No preincubation): 0.9718 | remaining activity at 100 µM (aureolysin (ALN); 0.25 h, read-out: vi/v0 (single replicate), Aureolysin, 15 min pre incubation): 91.1% | remaining activity at 100 µM (aureolysin (ALN); 0.25 h, read-out: vi/v0 avg, Aureolysin, 15 min pre incubation): 90.2% | remaining activity at 100 µM (aureolysin (ALN); 0.5 h, read-out: vi/v0 (single replicate), Aureolysin, 30 min pre incubation): 90.1% | remaining activity at 100 µM (aureolysin (ALN); 0.5 h, read-out: vi/v0 avg, Aureolysin, 30 min pre incubation): 89.4% | vi/v0 Av (bar diagram figure 7) (aureolysin (ALN); Aureolysin (ALN), inhibitor 100 μM, average over 0, 15, 30 min preincubation): 0.8998 | vi/v0 (relative enzyme activity with inhibitor), single determinations (aureolysin (ALN); Aureolysin (ALN), inhibitor 100 μM, preincubation 0 min): 0.9356 and 0.8634 and 0.8536 and 0.9579 | vi/v0 (relative enzyme activity with inhibitor), single determinations (aureolysin (ALN); Aureolysin (ALN), inhibitor 100 μM, preincubation 15 min): 0.9112 and 0.976 and 0.8542 and 0.865 | vi/v0 (relative enzyme activity with inhibitor), single determinations (aureolysin (ALN); Aureolysin (ALN), inhibitor 100 μM, preincubation 30 min): 0.898 and 0.8819 | remaining activity at 100 µM (aureolysin (ALN); read-out: vi/v0 (single replicate), Aureolysin, no preincubation): 93.6% | remaining activity at 100 µM (aureolysin (ALN); read-out: vi/v0 avg, Aureolysin, no preincubation): 90.3% | remaining activity at 100 µM (pseudolysin (PLN, LasB); 0.25 h, read-out: vi/v0 (single replicate), Pseudolysin, 15 min pre incubation): 75.8% | remaining activity at 100 µM (pseudolysin (PLN, LasB); 0.25 h, read-out: vi/v0 avg, Pseudolysin, 15 min pre incubation): 75.4% | remaining activity at 100 µM (pseudolysin (PLN, LasB); 0.5 h, read-out: vi/v0 (single replicate), Pseudolysin, 30 min pre incubation): 64.2% | remaining activity at 100 µM (pseudolysin (PLN, LasB); 0.5 h, read-out: vi/v0 avg, Pseudolysin, 30 min pre incubation): 64% | vi/v0 Av (bar diagram figure 7) (pseudolysin (PLN, LasB); Pseudolysin (PLN), inhibitor 100 μM, average over 0, 15, 30 min preincubation): 0.7111 | vi/v0 (relative enzyme activity with inhibitor), single determinations (pseudolysin (PLN, LasB); Pseudolysin (PLN), inhibitor 100 μM, preincubation 0 min): 0.8985 and 0.6806 and 0.6817 | vi/v0 (relative enzyme activity with inhibitor), single determinations (pseudolysin (PLN, LasB); Pseudolysin (PLN), inhibitor 100 μM, preincubation 15 min): 0.7584 and 0.7504 | vi/v0 (relative enzyme activity with inhibitor), single determinations (pseudolysin (PLN, LasB); Pseudolysin (PLN), inhibitor 100 μM, preincubation 30 min): 0.6423 and 0.5711 and 0.7059 | remaining activity at 100 µM (pseudolysin (PLN, LasB); read-out: vi/v0 avg, Pseudolysin, no preincubation): 75.4%
